# ChEMBL document CHEMBL5634129, “Design, synthesis, and structure-activity relationships of a novel class of quinazoline derivatives as coronavirus inhibitors” (Eur J Med Chem, 2023)
# Active and inactive are the calls of the source. The rule behind the calls is not given here.
# Assays:
# [1] = Cytotoxicity in human NCI-H460 cells infected with HCoV-OC43 treated for 72 hrs by CPE inhibition assay; type: toxicity, cell-based; details: read-out: TC50
# [2] = Selectivity index, ratio of TC50 for human NCI-H460 cells infected with HCoV-OC43 to EC50 for HCoV-OC43 infected in human NCI-H460 cells; type: toxicity, cell-based; details: read-out: Selectivity Index
# Human coronavirus OC43 [3] = test: Antiviral activity against HCoV-OC43 infected in human H460 cells assessed as decrease in viral nucleocapsid protein level at 10 uM by Hoechst 33342 staining based analysis relative to control; type: functional, NCI-H460; parameters: scale not given: the % may be the effect or the level left
# Human coronavirus OC43 [4] = test: Antiviral activity against HCoV-OC43 infected in human H460 cells assessed as decrease in viral nucleocapsid protein mRNA level by qRT-PCR analysis; type: functional, organism-based; details: NCI-H460, dose 0.1-10 µM
# Human coronavirus OC43 [5] = test: Antiviral activity against HCoV-OC43 infected in human H460 cells assessed as decrease in viral nucleocapsid protein level by Hoechst 33342 staining based analysis; type: functional, organism-based; details: NCI-H460, dose 0.1-10 µM
# Human coronavirus OC43 [6] = test: Antiviral activity against HCoV-OC43 infected in human NCI-H460 cells treated for 72 hrs by CPE inhibition assay; type: functional, organism-based; details: Betacoronavirus 1, NCI-H460, 72 h
# Human coronavirus OC43 [7] = test: Antiviral activity against HCoV-OC43 infected in human H460 cells assessed as viral inhibition at early stage at 10 uM measured upto 12 hrs by Hoechst 33342 staining based analysis; type: functional, organism-based; details: NCI-H460
# Human coronavirus OC43 [8] = test: Antiviral activity against HCoV-OC43 infected in human H460 cells assessed as viral inhibition at early stage at 500 nM measured upto 12 hrs by Hoechst 33342 staining based analysis; type: functional, organism-based; details: NCI-H460
# Human coronavirus OC43 [9] = test: Antiviral activity against HCoV-OC43 infected in human H460 cells assessed as decrease in viral nucleocapsid protein level at 2 uM by Hoechst 33342 staining based analysis; type: functional, organism-based; details: NCI-H460
structure (smiles),measurement,setting,value
CCOc1ccc2nc(NCCOC)nc(Nc3cc(C(F)(F)F)cc(C(F)(F)F)c3)c2c1,CC50 at 72 h,[1],5.77 µM
same,selectivity ratio,[2],57.7
same,Activity,Human coronavirus OC43 [3],100%
same,Activity,Human coronavirus OC43 [4],Dose-Dependent Effect
same,Activity,Human coronavirus OC43 [5],Dose-Dependent Effect
same,EC50,Human coronavirus OC43 [6],0.1 µM
CCOc1ccc2nc(NCC3CCCO3)nc(Nc3cc(C(F)(F)F)cc(C(F)(F)F)c3)c2c1 (stereo unspecified),CC50 at 72 h,[1],96.2 µM
same,selectivity ratio,[2],1070
same,Activity,Human coronavirus OC43 [3],100%
same,Activity,Human coronavirus OC43 [4],Dose-Dependent Effect
same,inhibition,Human coronavirus OC43 [7],Active
same,Activity,Human coronavirus OC43 [5],Dose-Dependent Effect
same,EC50,Human coronavirus OC43 [6],0.09 µM
COC(=O)c1cc(Cl)cc(Nc2ncnc3ccc(OC)cc23)c1,CC50 at 72 h,[1],129 µM
same,selectivity ratio,[2],90.4
same,EC50,Human coronavirus OC43 [6],1.43 µM
COc1ccc2ncnc(Nc3cc(F)cc(OC(F)(F)F)c3)c2c1,CC50 at 72 h,[1],289 µM
same,selectivity ratio,[2],28.9
same,EC50,Human coronavirus OC43 [6],9.98 µM
CCCCNc1nc(Nc2cc(C(F)(F)F)cc(C(F)(F)F)c2)c2cc(OCC)ccc2n1,CC50 at 72 h,[1],10.7 µM
same,selectivity ratio,[2],7.5
same,EC50,Human coronavirus OC43 [6],1.43 µM
FC(F)(F)c1cc(Nc2ncnc3cnc(Cl)cc23)cc(C(F)(F)F)c1,CC50 at 72 h,[1],1.71 µM
same,selectivity ratio,[2],11.4
same,EC50,Human coronavirus OC43 [6],0.15 µM
FC(F)(F)c1cc(Nc2ncnc3ncccc23)cc(C(F)(F)F)c1,CC50 at 72 h,[1],32.1 µM
same,selectivity ratio,[2],6.2
same,EC50,Human coronavirus OC43 [6],5.14 µM
COc1ccc2ncnc(Nc3cc(C#N)cc(C(F)(F)F)c3)c2c1,CC50 at 72 h,[1],240 µM
same,selectivity ratio,[2],501
same,EC50,Human coronavirus OC43 [6],0.48 µM
COc1ccc2ncnc(NNC(=O)c3cc(C(F)(F)F)cc(C(F)(F)F)c3)c2c1,CC50 at 72 h,[1],289 µM
same,selectivity ratio,[2],289
same,EC50,Human coronavirus OC43 [6],1.71 µM
CCOc1ccc2nc(NCCN3CCOCC3)nc(Nc3cc(C(F)(F)F)cc(C(F)(F)F)c3)c2c1,CC50 at 72 h,[1],5.77 µM
same,selectivity ratio,[2],48.1
same,Activity,Human coronavirus OC43 [3],100%
same,Activity,Human coronavirus OC43 [4],Dose-Dependent Effect
same,Activity,Human coronavirus OC43 [5],Dose-Dependent Effect
same,EC50,Human coronavirus OC43 [6],0.12 µM
COc1ccc2ncnc(Nc3cc(F)cc(F)c3)c2c1,CC50 at 72 h,[1],388 µM
same,selectivity ratio,[2],16.3
same,EC50,Human coronavirus OC43 [6],23.9 µM
FC(F)(F)c1cc(Nc2ncnc3cc(Cl)ccc23)cc(C(F)(F)F)c1,CC50 at 72 h,[1],1.43 µM
same,selectivity ratio,[2],3
same,EC50,Human coronavirus OC43 [6],0.47 µM
CCC(CC)COC(=O)[C@H](C)N[P@](=O)(OC[C@H]1O[C@@](C#N)(c2ccc3c(N)ncnn23)[C@H](O)[C@@H]1O)Oc1ccccc1 [REMDESIVIR],CC50 at 72 h,[1],> 20 µM
same,inhibition,Human coronavirus OC43 [8],Active
same,selectivity ratio,[2],> 143
same,Activity,Human coronavirus OC43 [9],Active
same,EC50,Human coronavirus OC43 [6],0.14 µM
